Consider eleven compounds from patent publication US20080221134A1, “8-ALKYNYLXANTHINES AND DERIVATIVES” (priority 2006, published 2008).

One data set deals with rats. As to the kind of experiment: Modified Irwin test (FOB, SAC, FU). The format is in vivo, rat. Details: key to Hypersensitivity / Temperature / Respiration / Tremor / Stereotypies / Patterns Activity / Motor Coordination / Catalepsy: +++ = very strong effect.; ++ = strong effect.; + = average effect.; 0 = no effect.; − = negative effect. The settings on record: modified Irwin test, 0.01-30 mg/kg, compressed outcome. From the text: In this study the compounds of the present invention were screened for basal behavioural, autonomic, neurological and toxicological side-effects in rats. For this purpose, a functional observational battery (FOB) in form of an Irwin test (Irwin S., Psychopharmacologia, 1968, 13, 222; 1968; Warburton D. M. Psychopharmacology, 2002, 163, 4; Haggerty G. C. et al., J. Amer. Coll. Toxicol., 1991, 10, 677; Mattsson J. L. et al., J. Amer. Coll. Toxicol., 1996, 15, 239, all references are herein incorporated by reference) modified and validated by the Test Facility was used. Each test compound was tested at eight doses (0.01, 0.03, 0.1, 0.3, 1.0, 3.0, 10.0 and 30.0 mg/kg). All compounds were dissolved in DMSO (administration volume 1 ml/kg). Each dose group included three animals. Two vehicle groups (DMSO and Labrasol) served as negative controls.
At the first day of each test week all test compound solutions necessary for the test (1-2 weeks) were prepared by means of one dilution series starting with the highest concentration. All test compounds dissolved in DMSO were administered in a volume of 1 ml/kg. DMSO-containing solutions were stored at −18° C. All solutions were melted for administration at room temperature 16-20 hours before the start of the test.
Study design and time schedule:
4-7 days: Acclimatization and handling of the animals 1 day: Test day with • (a) Four repeated functional observational battery (FOB): 30 min, 60 min, 120 min, 180 min following compound administration • (b) Short animal check (SAC): 300 min following compound administration 1 day: Follow-up observation (FU): • 24 h (1440 min) following compound administration.
In all experimental parts, an experienced ethologist used lists of predefined methods and behavioural parameters in order to rate the behaviour of the animal (see table 7 for functional observational battery (FOB), table 8 for short animal check (SAC) and table 9 for follow-up observation (FU).
A statistical evaluation of the data was performed that enabled an assessment of the compound's effects on each parameter. Dose-response relationships are not necessarily linear. It was not clear a priori whether the response would be dose-dependent or whether low, medium or high dose effects would occur. Therefore, the data were correlated against a set of different numeric models of theoretical dose-response curves. For this kind of evaluation the measurement times were not differentiated. An average value over all measurement times was calculated for each animal. This value was taken as one measurement within the observation vector. The complete set of parameters measured for the animal (each one averaged over time) formed the observation vector. Each dose was then represented by three observation vectors (3 animals per dose). The effects of all doses were compared with vehicle (DMSO) as the observation vectors for the zero dose. A common pool of 24 animals for the zero dose was used for all compounds to be tested. For each test compound the obtained values for each parameter together with values from the pool of vehicle-treated (DMSO) animals were then correlated with theoretical dose-response models (analysis profiles). Since 8 doses were be used, there were 8 models, each assuming that the maximum compound effect occurred at one of these doses. Effects of other doses were assumed to be attenuated with a linearly descending slope of the theoretical curve. Correlation values and statistical significance of regression were then calculated. An error probability of p<0.05 (two-tailed testing) was taken as significance level. Non-significant regressions were neglected. In consequence, each parameter was assessed as not affected or affected by the compound in a dose-response relationship according to type 1 (low dose effect) up to type 8 (high dose effect). Dose response is maximal for the effect with the greatest absolute correlation coefficient. […]

The next data set addresses T1, Adenosine A1 (Homo sapiens, UniProt P30542).
T1 sequence (P30542 1-326): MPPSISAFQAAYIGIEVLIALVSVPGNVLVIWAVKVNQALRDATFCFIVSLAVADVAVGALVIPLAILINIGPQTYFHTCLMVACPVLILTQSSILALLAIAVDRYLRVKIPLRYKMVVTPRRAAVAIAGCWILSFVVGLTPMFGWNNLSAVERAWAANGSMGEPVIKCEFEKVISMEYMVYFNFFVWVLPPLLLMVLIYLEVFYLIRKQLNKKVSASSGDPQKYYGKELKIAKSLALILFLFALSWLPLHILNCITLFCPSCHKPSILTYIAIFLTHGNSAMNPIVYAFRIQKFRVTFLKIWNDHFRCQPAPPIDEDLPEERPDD
Kind of data set: Functional assay (luciferase reporter), inhibition of A1 adenosine receptor. The settings on record: for A1 AR Imax: Imax in % of the corresponding antagonist (CPX); for A1 AR IC50 / IC50: CHO-DUKX-SRE-Luci-A1-44 cells, 3.5 μM ADAC; for A1 AR Ki / Ki: Ki=IC50/(1+agonist concentration/EC50); for IC50: read-out: A1 AR IC50; for Ki: read-out: A1 AR Ki. Further details: expressed in transfected cells; host or cells: CHO-DUKX-SRE-Luci-A1-44 (CHO-DUKX, vector pCineo). The format is cell-based. (In general: A reporter such as luciferase makes a cellular process visible.)

Another data set concerns the target Adenosine A2A (Homo sapiens, UniProt P29274). Kind of data set: Functional assay (luciferase reporter), inhibition of A2A adenosine receptor. Details: expressed in transfected cells; host or cells: CHO-DUKX-CRE-A2A-19 (CHO-DUKX, vector pCineo). The settings on record: for IC50: CHO-DUKX-CRE-A2A-19 cells, 60 nM NECA, read-out: A2A AR IC50; for A2A AR Imax: Imax in % of the corresponding antagonist; for Ki: Ki=IC50/(1+agonist concentration/EC50), read-out: A2A AR Ki. The format is cell-based.

Sequence of Adenosine A2A (P29274 whole entry): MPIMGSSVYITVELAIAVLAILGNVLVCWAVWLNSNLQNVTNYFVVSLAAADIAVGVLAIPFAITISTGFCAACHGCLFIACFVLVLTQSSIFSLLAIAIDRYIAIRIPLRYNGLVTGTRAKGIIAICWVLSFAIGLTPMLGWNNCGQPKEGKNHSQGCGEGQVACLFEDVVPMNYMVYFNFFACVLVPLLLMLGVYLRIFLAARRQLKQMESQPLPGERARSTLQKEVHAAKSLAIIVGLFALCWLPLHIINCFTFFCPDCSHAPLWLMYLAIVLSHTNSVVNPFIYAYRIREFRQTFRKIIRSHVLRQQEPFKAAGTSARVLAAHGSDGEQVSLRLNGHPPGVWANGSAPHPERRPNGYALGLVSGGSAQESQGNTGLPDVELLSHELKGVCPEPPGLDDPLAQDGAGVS

As for `C#CCn1c(=O)c2c(nc(C#Cc3ccc(OC)c(OC)c3)n2C)n(CC)c1=O` [drawing 624], in the data set with rats, the Catalepsy was 0, the Hypersensitivity entry is reported as “++”, the “Motor Coordination” value is recorded as 0 and the “Patterns Activity” value is “+++”. In the data set on rats, the Respiration entry is recorded as “+++”, the Stereotypies result is reported as “++”, the Temperature entry was “+” and the Tremor is reported as 0.

Turning to `CCCn1c(=O)c2[nH]c(C3CCCC3)nc2n(CCC)c1=O` [CPX, 8-Cyclopentyl 1,3-diprophylxanthine, reference compound], at Adenosine A1, the “A1 AR Imax” value came out at 100%.

Take `C#CCn1c(=O)c2c(nc(C#Cc3ccc(OC)c(OC)c3)n2C)n(C)c1=O` [drawing 619]: at Adenosine A2A, the IC50 was 600 nM, the “A2A AR Imax” value was 95% and the Ki was 58 nM. At Adenosine A1, the “A1 AR IC50” value is on record as “Nosignificantactivitydetected”, the “A1 AR Imax” value was “Nosignificantactivitydetected” and the “A1 AR Ki” value is recorded as “Nosignificantactivitydetected”.

Consider `C#CCn1c(=O)c2c(nc(C#Cc3ccc(OC)c(OC)c3)n2C)n(CC)c1=O` [drawing 618], for which, on Adenosine A2A, the IC50 was determined as 200 nM, the “A2A AR Imax” value came out at 97% and the Ki is 23 nM. At Adenosine A1, the IC50 was 3900 nM, the “A1 AR Imax” value was 49% and the Ki was 854 nM.

For `C#CCn1c(=O)c2c(nc(C#Cc3ccc(OC)c(OC)c3)n2C)n(CCCO)c1=O` [drawing 625], in the data set on rats, the Catalepsy is recorded as 0, the Hypersensitivity was found to be 0, the “Motor Coordination” value is reported as “−” and the “Patterns Activity” value is reported as “++”. Besides, in the data set on rats, the Respiration entry is “+++”, the Stereotypies entry is given as “+”, the Temperature result is listed as “−” and the Tremor entry was “+”.

Regarding `C#CCn1c(=O)c2c(nc(C#Cc3cccc(OC)c3)n2C)n(C)c1=O` [drawing 617], on Adenosine A2A, the IC50 came to 1900 nM, the “A2A AR Imax” value was 90% and the Ki worked out at 178 nM. At Adenosine A1, the “A1 AR IC50” value was “Nosignificantactivitydetected”, the “A1 AR Imax” value is “Nosignificantactivitydetected” and the “A1 AR Ki” value is on record as “Nosignificantactivitydetected”.

With `C#CCn1c(=O)c2c(nc(C#Cc3ccc(OC)c(OC)c3)n2C)n(CCCO)c1=O` [drawing 622], on Adenosine A2A, the IC50 worked out at 300 nM, the “A2A AR Imax” value came to 117% and the Ki is 26 nM. On Adenosine A1, the IC50 amounted to 1800 nM, the “A1 AR Imax” value amounted to 92% and the inhibitory constant (Ki) stood at 401 nM.

As for `C#CCn1c(=O)c2c(nc(C#Cc3cccc(OC)c3)n2C)n(CCCO)c1=O` [drawing 626], in the data set on rats, the Catalepsy is 0, the Hypersensitivity result is “+”, the “Motor Coordination” value is on record as 0 and the “Patterns Activity” value is “+”. Moreover, in the data set on rats, the Respiration entry is “++”, the Stereotypies turned out to be 0, the Temperature amounted to 0 and the Tremor was 0.

Consider `C#CCn1c(=O)c2c(nc(C#Cc3cccc(OC)c3)n2C)n(CCCO)c1=O` [drawing 620], for which, on Adenosine A2A, the 50% inhibitory concentration (IC50) came out at 900 nM, the “A2A AR Imax” value worked out at 117% and the Ki turned out to be 82 nM. Also, at Adenosine A1, the IC50 was found to be 1700 nM, the “A1 AR Imax” value is listed as 90% and the Ki amounted to 370 nM.

For the compound `C#CCn1c(=O)c2c(nc(C#Cc3cccc(OC)c3)n2CC#C)n(C)c1=O` [drawing 621], at Adenosine A2A, the IC50 worked out at 500 nM, the “A2A AR Imax” value is recorded as 86% and the Ki came to 47 nM. In addition, on Adenosine A1, the IC50 turned out to be 2300 nM, the “A1 AR Imax” value came to 55% and the Ki amounted to 501 nM.

On to `C#CCn1c(=O)c2c(nc(C#Cc3cccc(C)c3)n2C)n(CCCO)c1=O` [drawing 623], for which, on Adenosine A2A, the IC50 was determined as 400 nM, the “A2A AR Imax” value is recorded as 109% and the Ki came out at 40 nM. Also, on Adenosine A1, the half-maximal inhibitory concentration (IC50) was 1300 nM, the “A1 AR Imax” value stood at 102% and the Ki came out at 289 nM.

One may read the IC50 as the concentration needed to halve the response being measured. In general, Ki refers to a dissociation constant, usually derived from enzyme kinetics or from competition with a known ligand.
